Laboratory results published in patent US20120046306A1, “Substituted Heteroaryl Spiropyrrolidine MDM2 Antagonists” (priority 2010, published 2012).

Each molecule was assayed against interaction between p53 and MDM2 proteins (Homo sapiens, UniProt Q00987) (assay: HTRF assay of inhibition of p53-MDM2 interaction). Settings: GST-MDM2 and biotinylated p53 peptide, bsa: 0.02%.
Format: binding
Experimental: The ability of the compounds to inhibit the interaction between p53 and MDM2 proteins was measured by an HTRF (homogeneous time-resolved fluorescence) assay in which recombinant GST-tagged MDM2 binds to a peptide that resembles the MDM2-interacting region of p53. Binding of GST-MDM2 protein and p53-peptide (biotinylated on its N-terminal end) is registered by the FRET (fluorescence resonance energy transfer) between Europium (Eu)-labeled anti-GST antibody and streptavidin-conjugated Allophycocyanin (APC).
Add 20 uL streptavidin-APC and Eu-anti-GST antibody mixture (6 nM Eu-anti-GST and 60 nM streptavidin-APC working solution) in TBS buffer with 0.2% BSA, shake at room temperature for 30 minutes and read using a TRF-capable plate reader at
If not specified, the reagents were purchased from Sigma Chemical Co.

interaction between p53 and MDM2 proteins, sequence (Q00987 whole entry): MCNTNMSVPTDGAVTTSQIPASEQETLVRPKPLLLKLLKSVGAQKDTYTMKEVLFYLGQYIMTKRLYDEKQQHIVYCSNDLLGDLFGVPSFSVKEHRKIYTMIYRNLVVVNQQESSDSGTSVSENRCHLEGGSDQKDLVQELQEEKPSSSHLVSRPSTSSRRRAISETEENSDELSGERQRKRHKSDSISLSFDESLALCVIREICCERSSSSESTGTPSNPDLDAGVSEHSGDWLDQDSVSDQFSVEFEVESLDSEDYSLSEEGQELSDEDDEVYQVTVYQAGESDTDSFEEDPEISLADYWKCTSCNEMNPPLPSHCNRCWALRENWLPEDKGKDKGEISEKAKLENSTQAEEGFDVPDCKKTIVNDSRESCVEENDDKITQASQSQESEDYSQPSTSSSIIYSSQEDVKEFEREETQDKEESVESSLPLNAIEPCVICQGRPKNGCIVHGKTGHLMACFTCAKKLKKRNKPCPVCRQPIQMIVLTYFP

Compared with `COc1cc(C(=O)O)ccc1NC(=O)[C@@H]1N[C@@H](CC(C)(C)C)[C@@]2(C(=O)Nc3ccc(Cl)nc32)[C@H]1c1cccc(Cl)c1F` (racemic) [Example 47, rac-4-((2S,3S,4S,5R)-5′-chloro-4-(3-chloro-2-fluorophenyl)-2-neopentyl-2′-oxo-1′,2′-dihydrospiro[pyrrolidine-3,3′-pyrrolo[3,2-b]pyridine]-5-ylcarboxamido)-3-methoxybenzoic acid], `COC(=O)c1ccc(NC(=O)[C@@H]2N[C@@H](CC(C)(C)C)[C@@]3(C(=O)Nc4c(Cl)ccnc43)[C@H]2c2cccc(Cl)c2F)c(OC)c1` (racemic) [Example 123, methyl rac-4-((2S,3S,4S,5R)-7′-chloro-4-(3-chloro-2-fluorophenyl)-2-neopentyl-2′-oxo-1′,2′-dihydrospiro[pyrrolidine-3,3′-pyrrolo[3,2-b]pyridine]-5-ylcarboxamido)-3-methoxybenzoate] is 180-fold higher in IC50: 34.5 nM for the first, 6250 nM for the second.

First: COC(=O)c1ccc(NC(=O)[C@@H]2N[C@@H](CC(C)(C)C)[C@@]3(C(=O)Nc4ncccc43)[C@H]2c2cccc(Cl)c2F)c(OC)c1 (racemic) [Example 13, methyl rac-4-((2S,3R,4S,5R)-4-(3-chloro-2-fluorophenyl)-2-neopentyl-2′-oxo-1′,2′-dihydrospiro[pyrrolidine-3,3′-pyrrolo[2,3-b]pyridine]-5-ylcarboxamido)-3-methoxybenzoate]
Second: COC(=O)c1ccc(NC(=O)[C@@H]2N[C@@H](CC(C)(C)C)[C@@]3(C(=O)Nc4cc(O)ncc43)[C@H]2c2cccc(Cl)c2F)c(OC)c1 (racemic) [Example 113, methyl rac-4-((2S,3R,4S,5R)-4-(3-chloro-2-fluorophenyl)-6′-hydroxy-2-neopentyl-2′-oxo-1′,2′-dihydrospiro[pyrrolidine-3,3′-pyrrolo[3,2-c]pyridine]-5-ylcarboxamido)-3-methoxybenzoate]
The IC50 of the first is lower: 30.3 nM for the first, > 10000 nM for the second.

First: COC(=O)c1ccc(NC(=O)[C@@H]2N[C@@H](CC(C)(C)C)[C@@]3(C(=O)Nc4cc(Cl)sc43)[C@H]2c2cccc(Cl)c2F)c(OC)c1 (racemic) [Example 96, methyl rac-4-((2S,3R,4R,5R)-2′-chloro-4-(3-chloro-2-fluorophenyl)-2-neopentyl-5′-oxo-4′,5′-dihydrospiro[pyrrolidine-3,6′-thieno[3,2-b]pyrrole]-5-ylcarboxamido)-3-methoxybenzoate]
Second: COc1cc(C(N)=O)ccc1NC(=O)[C@@H]1N[C@@H](CC(C)(C)C)[C@@]2(C(=O)Nc3cc(C)ncc32)[C@H]1c1cccc(Cl)c1F (racemic) [Example 121, rac-(2S,3R,4S,5R)-N-(4-carbamoyl-2-methoxyphenyl)-4-(3-chloro-2-fluorophenyl)-6′-methyl-2-neopentyl-2′-oxo-1′,2′-dihydrospiro[pyrrolidine-3,3′-pyrrolo[3,2-c]pyridine]-5-carboxamide]
The IC50 of the first is 1.9-fold higher: 22.7 nM for the first, 11.8 nM for the second. The second is the more potent here.
